Data as given in patent US20250099468A1, “TREATING LIVER DISORDERS WITH AN SSAO INHIBITOR” (Terns Pharmaceuticals, Inc., priority 2021, published 2025).
“Also recorded” adds a separate entry of the source.

Columns and labels:
plasma methylamine [1] = experiment: Single-ascending dose trial, plasma methylamine (MMA); type: in vivo, human; settings: single dose 1-10 mg
Procedure: (§1) Safety was assessed for 7 (±3) days after dosing.

[2] = NASH patient study Part 1, safety; type: in vivo, human; settings: 10 mg QD 12 weeks, NASH patients
Procedure: (§2) Part 1 interim analysis primary endpoint was safety assessed by adverse events (AEs) and laboratory tests; percent change from baseline (BL) in plasma VAP-1 activity was a secondary endpoint. Exploratory imaging and blood-based biomarkers of liver inflammation and fibrosis were also assessed. Analyses of change (or percent change) from baseline used an ANCOVA model with change (or percent change) from baseline as the dependent variable including treatment group and randomization strata as fixed effects and baseline as a covariate.

plasma SSAO [3] = target: T1, plasma SSAO (Homo sapiens, UniProt Q16853); experiment: Multiple-ascending dose trial, plasma SSAO / amine oxidase activity; type: in vivo
T1 construct: from tissue; host or cells: human plasma
T1 sequence (Q16853 29-763 limits assumed): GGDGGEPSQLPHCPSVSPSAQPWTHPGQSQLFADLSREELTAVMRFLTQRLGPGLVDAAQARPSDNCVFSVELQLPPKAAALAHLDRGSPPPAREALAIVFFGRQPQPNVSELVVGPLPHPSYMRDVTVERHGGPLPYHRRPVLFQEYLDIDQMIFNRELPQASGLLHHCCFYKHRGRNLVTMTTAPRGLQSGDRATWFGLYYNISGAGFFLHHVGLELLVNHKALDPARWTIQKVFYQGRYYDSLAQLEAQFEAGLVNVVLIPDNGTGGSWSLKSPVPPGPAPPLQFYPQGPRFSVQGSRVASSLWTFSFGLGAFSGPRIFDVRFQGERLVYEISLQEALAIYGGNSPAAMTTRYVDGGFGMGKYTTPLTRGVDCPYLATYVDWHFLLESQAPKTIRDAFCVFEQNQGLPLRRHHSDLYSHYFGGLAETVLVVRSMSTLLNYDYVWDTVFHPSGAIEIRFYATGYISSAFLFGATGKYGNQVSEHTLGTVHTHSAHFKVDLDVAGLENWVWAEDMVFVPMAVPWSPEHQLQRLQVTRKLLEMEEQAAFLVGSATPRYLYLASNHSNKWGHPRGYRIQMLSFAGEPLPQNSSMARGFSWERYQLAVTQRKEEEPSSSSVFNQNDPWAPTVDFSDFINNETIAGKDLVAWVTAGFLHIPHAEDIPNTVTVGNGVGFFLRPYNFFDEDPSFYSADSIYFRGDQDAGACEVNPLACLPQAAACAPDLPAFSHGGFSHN
Procedure: (§3) A multiple-ascending dose clinical trial of Compound 1 was performed.

[4] = Multiple-ascending dose clinical trial, plasma PK; type: in vivo, human
Procedure: as §3

[5] = Multiple-ascending dose clinical trial, safety; type: in vivo, human
Procedure: as §3

plasma SSAO [6] = target: T1, plasma SSAO; experiment: Single-ascending dose trial, plasma SSAO / amine oxidase activity; type: in vivo
Procedure: as §1
(§4) Plasma PK parameters were determined by non-compartmental analysis.
SSAO-specific amine oxidase levels in plasma were determined using a kinetic-based assay essentially as described previously (Schilter et al). Endogenous monoamine oxidases A and B were inhibited by adding pargyline to plasma samples prior to measuring H2O2 generation levels in placebo and active recipients.

rat model of NASH = experiment: Rat model of NASH; type: in vivo
plasma VAP-1 = target: T2, plasma VAP-1 (Homo sapiens, UniProt Q16853); experiment: NASH patient study Part 1, plasma VAP-1 activity; type: in vivo; settings: 10 mg QD, through week 12
T2 construct: from tissue; host or cells: human plasma
T2 sequence (Q16853 29-763 limits assumed): T1 sequence (Q16853 29-763 limits assumed)
Procedure: as §2

[7] = test system: NASH and inflammation biomarkers; experiment: NASH patient study Part 1, imaging and blood biomarkers of liver inflammation and fibrosis; type: in vivo, human
Procedure: Plasma samples are collected for measurement of plasma concentrations of study drug and metabolites. Urine samples are collected for measurement of urine concentrations of study drug and metabolites. Patients who are not participating in the PK/PD sub-study undergo trough PK sampling only. Blood collection for NASH/fibrosis markers (CK-18 (M30 and M65), PIIINP, TIMP-1, HA, PRO-C3, and C3M) and inflammation markers (hs-CRP, IL-6, ICAM-1, and VCAM-1) are also conducted. The following exploratory fibrosis scores may also be calculated: FIB-4, enhanced liver fibrosis (ELF), and NAFLD. The PRO-C3/C3M ratio may be calculated. Patients are monitored for adverse events.
as §2

MAO-B = target: T3, MAO-B (Homo sapiens, UniProt P27338); experiment: Biochemical activity, MAO-B; settings: all single dose levels (1-10 mg)
T3 sequence (P27338 1-520): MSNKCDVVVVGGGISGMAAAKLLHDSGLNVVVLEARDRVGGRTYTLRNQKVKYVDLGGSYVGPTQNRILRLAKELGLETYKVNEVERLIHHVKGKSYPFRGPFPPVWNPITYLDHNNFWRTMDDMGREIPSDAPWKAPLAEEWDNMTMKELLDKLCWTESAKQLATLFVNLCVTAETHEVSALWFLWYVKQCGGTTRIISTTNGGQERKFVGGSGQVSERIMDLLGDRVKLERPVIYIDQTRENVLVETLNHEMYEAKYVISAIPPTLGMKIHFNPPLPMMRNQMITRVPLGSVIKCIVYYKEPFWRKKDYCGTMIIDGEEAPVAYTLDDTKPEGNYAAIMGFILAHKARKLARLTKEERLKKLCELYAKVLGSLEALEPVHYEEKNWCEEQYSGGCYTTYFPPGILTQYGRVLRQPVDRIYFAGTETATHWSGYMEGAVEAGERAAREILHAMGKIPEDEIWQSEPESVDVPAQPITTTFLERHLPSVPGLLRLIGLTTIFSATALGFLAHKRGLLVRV

MAO-A = target: T4, MAO-A (Homo sapiens, UniProt P21397); experiment: Biochemical activity, MAO-A; settings: all single dose levels (1-10 mg)
T4 sequence (P21397 1-527): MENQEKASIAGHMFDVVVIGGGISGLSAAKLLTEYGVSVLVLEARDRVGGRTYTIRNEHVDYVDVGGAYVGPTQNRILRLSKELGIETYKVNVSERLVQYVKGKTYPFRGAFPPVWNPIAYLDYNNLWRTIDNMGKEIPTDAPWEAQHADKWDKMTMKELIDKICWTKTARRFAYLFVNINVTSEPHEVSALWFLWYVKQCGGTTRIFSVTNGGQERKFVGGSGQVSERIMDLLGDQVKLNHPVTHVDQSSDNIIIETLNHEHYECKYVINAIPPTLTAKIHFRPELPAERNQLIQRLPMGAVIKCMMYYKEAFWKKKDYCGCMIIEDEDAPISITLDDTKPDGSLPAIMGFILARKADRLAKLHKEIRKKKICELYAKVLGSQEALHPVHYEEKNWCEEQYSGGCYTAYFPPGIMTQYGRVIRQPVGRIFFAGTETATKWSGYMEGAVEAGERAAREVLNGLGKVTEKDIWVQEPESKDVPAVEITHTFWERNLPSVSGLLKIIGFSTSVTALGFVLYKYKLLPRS

plasma methylamine [8] = experiment: Multiple-ascending dose trial, plasma methylamine; type: in vivo, human
Procedure: as §3

[9] = Single-ascending dose clinical trial, plasma PK; type: in vivo, human; settings: for plasma PK exposure increase with dose: single dose, between 3 and 10 mg
Procedure: as §1, §4

[10] = Single-ascending dose clinical trial, safety; type: in vivo, human; settings: single dose 6 mg or placebo (n = 8)
Procedure: as §1

[11] = 1, 4 mg QD 7 days, 10 mg QD 14 days

With `COC1CCN(c2ncc(OC/C(=C/F)CN)cn2)CC1` [Compound 1, (E)-3-fluoro-2-(((2-(4-methoxypiperidin-1-yl)pyrimidin-5-yl)oxy)methyl)prop-2-en-1-amine] the “plasma methylamine (MMA) levels” value (plasma methylamine [1]) was “increased; also recorded: Dose-dependent increases”, the “severity of AEs” value [2] was “mild or moderate” and the tolerability [2] was “well-tolerated”. For the same compound, the “duration of near complete inhibition of plasma SSAO amine oxidase activity after cessation of dosing” value (plasma SSAO [3]; after multiple QD doses) was “up to 2 weeks”, the “inhibition of total amine oxidase” value (plasma SSAO [3]; plasma, single and multiple doses) was “incomplete” and the “plasma PK exposure increases between dose groups” value ([4]; Day 1, 1, 4, 10 mg) was “greater than dose proportional”. The “accumulation after multiple QD doses” value ([4]; each dose level) was “significant accumulation”, the “discontinuation due to an adverse event” value [5, 11] was “No subject discontinued” and the “severity of adverse events” value [5, 11] was “mild (grade 1)”. For the same compound, the “safety and tolerability (laboratory, vital signs, ECG)” value ([5]; up to 10 mg QD for 14 days, healthy subjects) was “no notable findings; also recorded: safe and well tolerated”, the “duration of SSAO activity inhibition after a single dose” value (plasma SSAO [6]; single dose 1 mg to 10 mg) was “up to seven days” and the “duration of suppression of plasma SSAO amine oxidase activity after a single dose” value (plasma SSAO [6]; single dose 1-10 mg) was “up to 1 week”. The “liver inflammation and fibrosis” value (rat model of NASH) was “decreases liver inflammation and fibrosis”, the “inhibition of plasma VAP-1 activity” value (plasma VAP-1) was “sustained suppression; also recorded: near complete inhibition” and the “changes in cT1 from baseline to end of treatment” value ([7]; 10 mg QD 12 weeks) was “no significant changes”. The “difference from placebo in change from BL cT1, liver fat fraction, liver enzymes, or cytokeratin-18” value ([7]; 10 mg QD 12 weeks) was “no statistically significant differences”, the “ICAM-1 decrease relative to BL, mean (±SE)” value ([7]; 10 mg QD, Week 8) was 34.85 (56.03) μg/L and the “TIMP-1 decrease relative to BL, mean (±SE)” value ([7]; 10 mg QD, Week 12) was 29.58 (9.26) ng/ml. The “VCAM-1 decrease relative to BL, mean (±SE)” value ([7]; 10 mg QD, Week 12) was 24.327 (20.5850) μg/L, the “Cmax relative to IC50 for MAO-B (times lower)” value (MAO-B) was “more than 800 times” and the “Cmax relative to IC50 for MAO-A (times lower)” value (MAO-A) was “more than 800 times”. For the same compound, the plasma methylamine levels (plasma methylamine [8]; Day 1) was “increased in a dose proportional manner”, the plasma methylamine levels (plasma methylamine [8]; last day of administration, after multiple doses) was “further increases” and the “plasma PK exposure increase with dose” value [9] was “greater than dose proportional”.

For `COC1CCN(c2ncc(OC/C(=C/F)CN)cn2)CC1.Cc1ccc(S(=O)(=O)O)cc1` [tosylate salt of Compound 1], the “Subject incidence of any TEAE” value [10] was 2 (25), the “TEAE frequency: contact dermatitis” value [10] was 2 (25) and the “TEAE frequency: sore throat” value [10] was 1 (12.5). For the same compound, the “plasma PK exposure increase with dose” value [9] was “greater than dose proportional” and the clearance from plasma ([9]; single doses) was “rapidly cleared from plasma”.
